Assay results from ChEMBL document CHEMBL2016565, “Cellular uptake of covalent conjugates of oligonucleotide with membrane-modifying peptide, peptaibol” (Bioorg Med Chem, 2012).
The source made the active and inactive calls. The rule behind the calls is not given here.

What was measured:
A549 [1] = assay: Drug uptake in human A549 cells assessed as increase in fluorescence intensity at 1 uM after 24 hrs by fluorescence analysis relative to control; format: ADME, cell-based; settings: a549, 24 h
A549 [2] = assay: Drug uptake in human A549 cells after 24 hrs by confocal laser-scanning microscopy; format: ADME, cell-based; settings: a549, 24 h
A549 [3] = assay: Drug uptake in human A549 cells at 1 to 4 uM by confocal laser-scanning microscopy; format: ADME, cell-based; settings: a549, 4 µM
A549 [4] = assay: Antisense activity in human A549 cells assessed as down regulation of p53 protein at 1 uM incubated for 8 hrs in serum-free medium followed by 24 hrs incubation in serum-containing medium by Western blotting analysis; format: functional, cell-based
A549 [5] = assay: Antisense activity in human A549 cells assessed as down regulation of p53 protein at 5 uM incubated for 8 hrs in serum-free medium followed by 24 hrs incubation in serum-containing medium by Western blotting analysis; format: functional
A549 [6] = assay: Cytotoxicity against human A549 cells assessed as cytoplasmic LDH release at 5 uM after 2 to 24 hrs by spectrophotometry; format: cell-based; settings: a549, 5 µM
A549 [7] = assay: Drug uptake in human A549 cells assessed as increase in fluorescence intensity at 1 uM after 2 hrs by fluorescence analysis using fluorescein labelled compound relative to oligonucleotide treated control; format: ADME, cell-based; settings: a549, 2 h
A549 [8] = assay: Drug uptake in human A549 cells assessed as increase in fluorescence intensity at 1 uM after 8 hrs by fluorescence analysis using fluorescein labelled compound relative to oligonucleotide treated control; format: ADME, cell-based; settings: a549, 8 h
A549 [9] = assay: Drug uptake in human A549 cells assessed as increase in fluorescence intensity at 1 uM after 24 hrs by fluorescence analysis using fluorescein labelled compound relative to oligonucleotide treated control; format: ADME, cell-based; settings: a549, 24 h

Drug uptake (A549 [1]) | Drug uptake (A549 [2]) | Drug uptake (A549 [3]) | Drug uptake (A549 [3]; TDE = time-dependent effect) | fold change (FC) (A549 [7]) | fold change (FC) (A549 [8]) | fold change (FC) (A549 [9]) | SMILES | Activity (A549 [4]) | Activity (A549 [5]) [%] | Activity (A549 [6])
Not Active | – | – | – | – | – | – | CC[C@H](C)[C@H](NC(=O)[C@H](CC(N)=O)NC(=O)C(C)(C)NC(C)=O)C(=O)N[C@H](C(=O)NC(C)(C)C(=O)N1CCC[C@H]1C(=O)N[C@@H](CC(C)C)C(=O)N[C@@H](CC(C)C)C(=O)NC(C)(C)C(=O)N1CCC[C@H]1C(=O)N[C@H](C(=O)N[C@@H](CSC1CC(=O)N(CCCCCC(=O)NCCCCCCOP(=O)(O)OC[C@H]2O[C@@H](n3cnc4c(=O)[nH]c(N)nc43)C[C@@H]2OP(O)(=S)OC[C@H]2O[C@@H](n3cnc4c(=O)[nH]c(N)nc43)C[C@@H]2OP(O)(=S)OC[C@H]2O[C@@H](n3cnc4c(N)ncnc43)C[C@@H]2OP(O)(=S)OC[C@H]2O[C@@H](n3cnc4c(=O)[nH]c(N)nc43)C[C@@H]2OP(O)(=S)OC[C@H]2O[C@@H](n3ccc(N)nc3=O)C[C@@H]2OP(O)(=S)OC[C@H]2O[C@@H](n3ccc(N)nc3=O)C[C@@H]2OP(O)(=S)OC[C@H]2O[C@@H](n3cnc4c(N)ncnc43)C[C@@H]2OP(O)(=S)OC[C@H]2O[C@@H](n3cnc4c(=O)[nH]c(N)nc43)C[C@@H]2OP(O)(=S)OC[C@H]2O[C@@H](n3cnc4c(=O)[nH]c(N)nc43)C[C@@H]2OP(O)(=S)OC[C@H]2O[C@@H](n3cnc4c(=O)[nH]c(N)nc43)C[C@@H]2OP(O)(=S)OC[C@H]2O[C@@H](n3cnc4c(=O)[nH]c(N)nc43)C[C@@H]2OP(O)(=S)OC[C@H]2O[C@@H](n3cnc4c(=O)[nH]c(N)nc43)C[C@@H]2OP(O)(=S)OC[C@H]2O[C@@H](n3cnc4c(=O)[nH]c(N)nc43)C[C@@H]2OP(O)(=S)OC[C@H]2O[C@@H](n3cnc4c(N)ncnc43)C[C@@H]2OP(O)(=S)OC[C@H]2O[C@@H](n3cnc4c(=O)[nH]c(N)nc43)C[C@@H]2OP(O)(=S)OC[C@H]2O[C@@H](n3ccc(N)nc3=O)C[C@@H]2OP(O)(=S)OC[C@H]2O[C@@H](n3cnc4c(N)ncnc43)C[C@@H]2OP(O)(=S)OC[C@H]2O[C@@H](n3cnc4c(=O)[nH]c(N)nc43)C[C@@H]2OP(O)(=S)OC[C@H]2O[C@@H](n3cnc4c(=O)[nH]c(N)nc43)C[C@@H]2OP(O)(=S)OC[C@H]2O[C@@H](n3cnc4c(=O)[nH]c(N)nc43)C[C@@H]2O)C1=O)C(N)=O)[C@@H](C)CC)[C@@H](C)CC (some centres undefined) | – | – | –
– | Not Active | Not Active | – | – | – | – | Nc1ccn([C@H]2C[C@H](OP(O)(=S)OC[C@H]3O[C@@H](n4cnc5c(N)ncnc54)C[C@@H]3OP(O)(=S)OC[C@H]3O[C@@H](n4cnc5c(=O)[nH]c(N)nc54)C[C@@H]3OP(O)(=S)OC[C@H]3O[C@@H](n4cnc5c(=O)[nH]c(N)nc54)C[C@@H]3OP(O)(=S)OC[C@H]3O[C@@H](n4cnc5c(=O)[nH]c(N)nc54)C[C@@H]3OP(O)(=S)OC[C@H]3O[C@@H](n4cnc5c(=O)[nH]c(N)nc54)C[C@@H]3OP(O)(=S)OC[C@H]3O[C@@H](n4cnc5c(=O)[nH]c(N)nc54)C[C@@H]3OP(O)(=S)OC[C@H]3O[C@@H](n4cnc5c(=O)[nH]c(N)nc54)C[C@@H]3OP(O)(=S)OC[C@H]3O[C@@H](n4cnc5c(N)ncnc54)C[C@@H]3OP(O)(=S)OC[C@H]3O[C@@H](n4cnc5c(=O)[nH]c(N)nc54)C[C@@H]3OP(O)(=S)OC[C@H]3O[C@@H](n4ccc(N)nc4=O)C[C@@H]3OP(O)(=S)OC[C@H]3O[C@@H](n4cnc5c(N)ncnc54)C[C@@H]3OP(O)(=S)OC[C@H]3O[C@@H](n4cnc5c(=O)[nH]c(N)nc54)C[C@@H]3OP(O)(=S)OC[C@H]3O[C@@H](n4cnc5c(=O)[nH]c(N)nc54)C[C@@H]3OP(O)(=S)OC[C@H]3O[C@@H](n4cnc5c(=O)[nH]c(N)nc54)C[C@@H]3O)[C@@H](COP(O)(=S)O[C@H]3C[C@H](n4ccc(N)nc4=O)O[C@@H]3COP(O)(=S)O[C@H]3C[C@H](n4cnc5c(=O)[nH]c(N)nc54)O[C@@H]3COP(O)(=S)O[C@H]3C[C@H](n4cnc5c(N)ncnc54)O[C@@H]3COP(O)(=S)O[C@H]3C[C@H](n4cnc5c(=O)[nH]c(N)nc54)O[C@@H]3COP(O)(=S)O[C@H]3C[C@H](n4cnc5c(=O)[nH]c(N)nc54)O[C@@H]3CO)O2)c(=O)n1 (some centres undefined) | – | – | –
– | – | – | – | – | – | – | CC[C@H](C)[C@H](NC(=O)[C@H](CC(N)=O)NC(=O)C(C)(C)NC(C)=O)C(=O)N[C@H](C(=O)NC(C)(C)C(=O)N1CCC[C@H]1C(=O)N[C@@H](CC(C)C)C(=O)N[C@@H](CC(C)C)C(=O)NC(C)(C)C(=O)N1CCC[C@H]1C(=O)N[C@H](C(=O)N[C@@H](CSSCCCCCCOP(=O)(O)OC[C@H]1O[C@@H](n2ccc(N)nc2=O)C[C@@H]1OP(O)(=S)OC[C@H]1O[C@@H](n2ccc(N)nc2=O)C[C@@H]1OP(O)(=S)OC[C@H]1O[C@@H](n2ccc(N)nc2=O)C[C@@H]1OP(O)(=S)OC[C@H]1O[C@@H](n2cc(C)c(=O)[nH]c2=O)C[C@@H]1OP(O)(=S)OC[C@H]1O[C@@H](n2cnc3c(=O)[nH]c(N)nc32)C[C@@H]1OP(O)(=S)OC[C@H]1O[C@@H](n2ccc(N)nc2=O)C[C@@H]1OP(O)(=S)OC[C@H]1O[C@@H](n2cc(C)c(=O)[nH]c2=O)C[C@@H]1OP(O)(=S)OC[C@H]1O[C@@H](n2ccc(N)nc2=O)C[C@@H]1OP(O)(=S)OC[C@H]1O[C@@H](n2ccc(N)nc2=O)C[C@@H]1OP(O)(=S)OC[C@H]1O[C@@H](n2ccc(N)nc2=O)C[C@@H]1OP(O)(=S)OC[C@H]1O[C@@H](n2ccc(N)nc2=O)C[C@@H]1OP(O)(=S)OC[C@H]1O[C@@H](n2ccc(N)nc2=O)C[C@@H]1OP(O)(=S)OC[C@H]1O[C@@H](n2ccc(N)nc2=O)C[C@@H]1OP(O)(=S)OC[C@H]1O[C@@H](n2cc(C)c(=O)[nH]c2=O)C[C@@H]1OP(O)(=S)OC[C@H]1O[C@@H](n2cnc3c(=O)[nH]c(N)nc32)C[C@@H]1OP(O)(=S)OC[C@H]1O[C@@H](n2cnc3c(=O)[nH]c(N)nc32)C[C@@H]1OP(O)(=S)OC[C@H]1O[C@@H](n2ccc(N)nc2=O)C[C@@H]1OP(O)(=S)OC[C@H]1O[C@@H](n2cc(C)c(=O)[nH]c2=O)C[C@@H]1OP(O)(=S)OC[C@H]1O[C@@H](n2ccc(N)nc2=O)C[C@@H]1OP(O)(=S)OC[C@H]1O[C@@H](n2ccc(N)nc2=O)C[C@@H]1O)C(N)=O)[C@@H](C)CC)[C@@H](C)CC (some centres undefined) | inactive | 20 | Non-toxic
– | Dose-dependent effect | – | tde | 4 | 7 | 14 | CC[C@H](C)[C@H](NC(=O)[C@H](CC(N)=O)NC(=O)C(C)(C)NC(C)=O)C(=O)N[C@H](C(=O)NC(C)(C)C(=O)N1CCC[C@H]1C(=O)N[C@@H](CC(C)C)C(=O)N[C@@H](CC(C)C)C(=O)NC(C)(C)C(=O)N1CCC[C@H]1C(=O)N[C@H](C(=O)N[C@@H](CSC1CC(=O)N(CCCCCC(=O)NCCCCCCOP(=O)(O)OC[C@H]2O[C@@H](n3ccc(N)nc3=O)C[C@@H]2OP(O)(=S)OC[C@H]2O[C@@H](n3ccc(N)nc3=O)C[C@@H]2OP(O)(=S)OC[C@H]2O[C@@H](n3ccc(N)nc3=O)C[C@@H]2OP(O)(=S)OC[C@H]2O[C@@H](n3cc(C)c(=O)[nH]c3=O)C[C@@H]2OP(O)(=S)OC[C@H]2O[C@@H](n3cnc4c(=O)[nH]c(N)nc43)C[C@@H]2OP(O)(=S)OC[C@H]2O[C@@H](n3ccc(N)nc3=O)C[C@@H]2OP(O)(=S)OC[C@H]2O[C@@H](n3cc(C)c(=O)[nH]c3=O)C[C@@H]2OP(O)(=S)OC[C@H]2O[C@@H](n3ccc(N)nc3=O)C[C@@H]2OP(O)(=S)OC[C@H]2O[C@@H](n3ccc(N)nc3=O)C[C@@H]2OP(O)(=S)OC[C@H]2O[C@@H](n3ccc(N)nc3=O)C[C@@H]2OP(O)(=S)OC[C@H]2O[C@@H](n3ccc(N)nc3=O)C[C@@H]2OP(O)(=S)OC[C@H]2O[C@@H](n3ccc(N)nc3=O)C[C@@H]2OP(O)(=S)OC[C@H]2O[C@@H](n3ccc(N)nc3=O)C[C@@H]2OP(O)(=S)OC[C@H]2O[C@@H](n3cc(C)c(=O)[nH]c3=O)C[C@@H]2OP(O)(=S)OC[C@H]2O[C@@H](n3cnc4c(=O)[nH]c(N)nc43)C[C@@H]2OP(O)(=S)OC[C@H]2O[C@@H](n3cnc4c(=O)[nH]c(N)nc43)C[C@@H]2OP(O)(=S)OC[C@H]2O[C@@H](n3ccc(N)nc3=O)C[C@@H]2OP(O)(=S)OC[C@H]2O[C@@H](n3cc(C)c(=O)[nH]c3=O)C[C@@H]2OP(O)(=S)OC[C@H]2O[C@@H](n3ccc(N)nc3=O)C[C@@H]2OP(O)(=S)OC[C@H]2O[C@@H](n3ccc(N)nc3=O)C[C@@H]2O)C1=O)C(N)=O)[C@@H](C)CC)[C@@H](C)CC (some centres undefined) | inactive | 50 | Non-toxic
